From the kinase profiling compilation of Christmann-Franck et al. (2016)

Biological target: PLK1 (human) (UniProt P53350)
Test: radiometric filter-binding kinase assay
Conditions: ATP 5 µM

PLK1 (human), sequence (P53350 whole entry, looked up): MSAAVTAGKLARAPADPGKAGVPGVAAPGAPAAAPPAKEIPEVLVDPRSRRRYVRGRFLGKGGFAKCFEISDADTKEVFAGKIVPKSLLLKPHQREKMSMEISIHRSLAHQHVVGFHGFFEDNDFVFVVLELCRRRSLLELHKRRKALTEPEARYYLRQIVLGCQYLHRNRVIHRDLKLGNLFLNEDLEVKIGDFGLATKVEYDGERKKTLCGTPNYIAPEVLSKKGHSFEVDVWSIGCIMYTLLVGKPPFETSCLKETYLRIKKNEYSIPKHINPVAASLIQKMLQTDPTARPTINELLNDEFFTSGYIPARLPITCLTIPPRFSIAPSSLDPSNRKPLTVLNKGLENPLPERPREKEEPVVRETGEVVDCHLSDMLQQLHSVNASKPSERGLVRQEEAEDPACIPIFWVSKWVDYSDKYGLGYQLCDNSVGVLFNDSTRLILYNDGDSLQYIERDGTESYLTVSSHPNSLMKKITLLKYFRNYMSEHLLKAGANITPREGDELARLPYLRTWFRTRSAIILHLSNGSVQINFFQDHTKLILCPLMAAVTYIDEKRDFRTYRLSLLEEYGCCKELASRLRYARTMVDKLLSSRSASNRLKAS

Structure (SMILES): CCc1cncnc1N1CCN(Cc2nc3cc(C(F)(F)F)ccc3[nH]2)CC1
- residual activity (compound 0.1 µM): 98%
- residual activity (compound 1.0 µM): 87%
- residual activity (compound 10.0 µM): 88%
